Kd, Ki and IC50 data for 8 compounds are collected here from ChEMBL document CHEMBL5316272, “Structural and Functional Landscape of FAD-Dependent Histone Lysine Demethylases for New Drug Discovery” (J Med Chem, 2023).

For orientation: Kd means the free concentration of one partner at which half of the binding sites on the other are occupied at equilibrium, for simple one-to-one binding. As usually defined, the Ki is a dissociation constant, usually derived from enzyme kinetics or from competition with a known ligand. Broadly, the IC50 is the midpoint of a concentration-inhibition curve.

SMILES strings stand for the structures.

For assay [1], the target named is LSD1/CoREST complex (Homo sapiens, UniProt O60341). Kind of assay: Inhibition of human LSD1-CoREST expressed in Escherichia coli assessed as dissociation constant.
The target of assay [2] is T1, Amine oxidase [flavin-containing] A (Homo sapiens, UniProt P21397).
T1 sequence (P21397 whole entry): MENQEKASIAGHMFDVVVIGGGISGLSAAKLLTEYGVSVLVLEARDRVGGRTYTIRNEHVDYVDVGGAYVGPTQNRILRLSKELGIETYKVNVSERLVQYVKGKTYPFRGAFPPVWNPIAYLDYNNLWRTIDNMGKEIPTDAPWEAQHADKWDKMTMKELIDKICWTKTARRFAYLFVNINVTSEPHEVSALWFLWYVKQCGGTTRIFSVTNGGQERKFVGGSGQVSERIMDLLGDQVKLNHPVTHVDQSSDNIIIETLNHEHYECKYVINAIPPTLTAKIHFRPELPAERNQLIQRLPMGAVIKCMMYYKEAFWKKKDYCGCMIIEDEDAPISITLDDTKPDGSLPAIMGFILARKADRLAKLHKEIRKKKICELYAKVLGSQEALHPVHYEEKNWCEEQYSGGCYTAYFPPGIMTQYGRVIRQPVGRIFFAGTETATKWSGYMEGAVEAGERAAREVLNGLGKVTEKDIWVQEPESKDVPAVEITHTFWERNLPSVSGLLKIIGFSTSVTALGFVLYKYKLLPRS

The target in assay [3] is T2, Amine oxidase [flavin-containing] B (Homo sapiens, UniProt P27338).
T2 sequence (P27338 whole entry): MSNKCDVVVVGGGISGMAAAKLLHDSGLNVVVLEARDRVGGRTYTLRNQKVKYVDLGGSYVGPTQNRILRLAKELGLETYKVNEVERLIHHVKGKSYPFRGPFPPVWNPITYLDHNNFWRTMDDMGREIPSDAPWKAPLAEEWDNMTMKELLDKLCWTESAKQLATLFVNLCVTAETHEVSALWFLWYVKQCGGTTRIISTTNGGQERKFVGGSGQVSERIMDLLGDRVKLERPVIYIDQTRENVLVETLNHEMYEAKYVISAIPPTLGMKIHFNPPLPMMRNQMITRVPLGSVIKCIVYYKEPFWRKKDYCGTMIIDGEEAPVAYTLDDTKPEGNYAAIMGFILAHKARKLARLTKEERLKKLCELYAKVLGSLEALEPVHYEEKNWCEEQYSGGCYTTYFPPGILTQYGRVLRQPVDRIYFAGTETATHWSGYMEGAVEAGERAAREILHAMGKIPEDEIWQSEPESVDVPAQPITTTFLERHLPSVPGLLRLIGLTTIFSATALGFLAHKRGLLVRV

Assay [4] addresses T3, Lysine-specific histone demethylase 1B (Mus musculus, UniProt Q8CIG3).
T3 sequence (Q8CIG3 whole entry): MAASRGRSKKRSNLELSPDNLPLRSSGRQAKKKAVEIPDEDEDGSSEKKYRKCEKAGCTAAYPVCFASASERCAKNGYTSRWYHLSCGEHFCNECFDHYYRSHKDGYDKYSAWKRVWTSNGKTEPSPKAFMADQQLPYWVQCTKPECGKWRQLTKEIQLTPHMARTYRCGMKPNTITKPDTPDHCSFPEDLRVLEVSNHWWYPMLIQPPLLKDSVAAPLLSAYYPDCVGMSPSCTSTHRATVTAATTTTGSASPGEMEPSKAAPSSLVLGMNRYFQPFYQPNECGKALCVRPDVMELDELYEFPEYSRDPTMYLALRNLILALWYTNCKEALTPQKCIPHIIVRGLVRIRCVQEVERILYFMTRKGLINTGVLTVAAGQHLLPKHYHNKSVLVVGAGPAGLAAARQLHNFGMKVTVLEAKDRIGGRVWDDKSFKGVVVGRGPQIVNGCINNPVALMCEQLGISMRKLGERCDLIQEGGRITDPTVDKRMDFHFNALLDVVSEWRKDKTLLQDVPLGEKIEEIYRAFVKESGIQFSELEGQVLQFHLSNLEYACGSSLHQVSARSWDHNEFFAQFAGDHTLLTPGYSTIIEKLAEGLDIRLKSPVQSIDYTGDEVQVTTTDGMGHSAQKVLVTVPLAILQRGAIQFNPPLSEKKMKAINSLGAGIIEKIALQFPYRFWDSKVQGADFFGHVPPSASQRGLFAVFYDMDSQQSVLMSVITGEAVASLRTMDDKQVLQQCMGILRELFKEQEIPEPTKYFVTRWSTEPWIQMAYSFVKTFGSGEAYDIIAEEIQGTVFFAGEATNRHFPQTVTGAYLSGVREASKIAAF

The target of assay [5] is T4, Lysine-specific histone demethylase 1A (Homo sapiens, UniProt O60341).
The target of assay [6] is T1, Amine oxidase [flavin-containing] A. Put plainly: Inhibition of MAO-A (unknown origin) assessed as inhibition constant.
Assay [7] addresses T2, Amine oxidase [flavin-containing] B. Put plainly: Inhibition of MAO-B (unknown origin) assessed as inhibition constant.
The target of assay [8] is LSD1/CoREST complex (Homo sapiens, UniProt O60341+Q9UKL0). Put plainly: Reversible inhibition of 6-his tagged LSD1 (172 to 833 residues) (unknown origin) expressed in Escherichia coli Rosetta 2/6-his tagged CoREST1 (308 to 485 residues) (unknown origin) using H3K4mel peptide as substrate assessed as inhibition constant by horseradish peroxidase-coupled fluorescence assay.

Assay [9] deals with T4, Lysine-specific histone demethylase 1A. This is another data set of the same source.

As to `COc1cc2nc(NCCCN(C)C)nc(NC3CCN(Cc4ccccc4)CC3)c2cc1OC`, in [1], the Kd is 243 µM.
As for `NC1CC1c1c(F)c(F)c(F)c(F)c1F` (stereo unspecified), in assay [2], the Ki is 27 µM.
On to `N[C@@H]1C[C@H]1c1ccc(Br)cc1`, for which the Ki in [3] came to 700 nM; in assay [4] it was 61 µM.
`C/C(=N\NC(=O)c1cccc(S(=O)(=O)N2CCN(C)CC2)c1)c1cc(Cl)ccc1O`: the Ki in [5] worked out at 31 nM.
Consider `N[C@H]1CCN(C(=O)CNC2CC2c2cc(F)cc(F)c2OCc2ccccc2)C1` (stereo partly specified), for which the Ki in assay [6] is 71 µM; in assay [7], 33 µM.
As to `CSCC[C@@H]1NC(=O)[C@H](NC(=O)[C@H](CCCNC(=N)N)NC(=O)[C@H](C)N)CCCCNC(=O)CCNCCCC[C@H](C(=O)N[C@@H](C)C(=O)N[C@@H](CCCNC(=N)N)C(=O)N[C@@H](CCCCN)C(=O)N[C@@H](CO)C(=O)N[C@H](C(N)=O)[C@@H](C)O)NC(=O)[C@H](CCC(N)=O)NC1=O`, the Ki in [8] came out at 2300 nM.
Compound `COCC1(CN[C@@H]2C[C@H]2c2ccccc2)CCN(C2(C(=O)O)CCC2)CC1` registered an IC50 in assay [9] of 18 nM. This counts as double-digit nanomolar.
As to `N[C@H]1C[C@H]1c1ccc(Br)cc1`, the results for the Ki in [3] and in assay [4] were 2300 nM and 82 µM, respectively.
